Patent US8802675B2, “Neuroprotective multifunctional compounds and pharmaceutical compositions comprising them” (priority 2009, dated 2014)
Several values for one entry are separate records, joined by “and”; a condition that tells them apart may be missing. Equal entries are not always repeated. Where two headings read alike, the source gives them in different places.

Legend:
rat brain MAO-A = biological target: T1, rat brain MAO-A (Rattus norvegicus, UniProt P21396); experiment: biochemical
T1 construct: from tissue; host or cells: rat brain homogenate
T1 sequence (P21396 1-526): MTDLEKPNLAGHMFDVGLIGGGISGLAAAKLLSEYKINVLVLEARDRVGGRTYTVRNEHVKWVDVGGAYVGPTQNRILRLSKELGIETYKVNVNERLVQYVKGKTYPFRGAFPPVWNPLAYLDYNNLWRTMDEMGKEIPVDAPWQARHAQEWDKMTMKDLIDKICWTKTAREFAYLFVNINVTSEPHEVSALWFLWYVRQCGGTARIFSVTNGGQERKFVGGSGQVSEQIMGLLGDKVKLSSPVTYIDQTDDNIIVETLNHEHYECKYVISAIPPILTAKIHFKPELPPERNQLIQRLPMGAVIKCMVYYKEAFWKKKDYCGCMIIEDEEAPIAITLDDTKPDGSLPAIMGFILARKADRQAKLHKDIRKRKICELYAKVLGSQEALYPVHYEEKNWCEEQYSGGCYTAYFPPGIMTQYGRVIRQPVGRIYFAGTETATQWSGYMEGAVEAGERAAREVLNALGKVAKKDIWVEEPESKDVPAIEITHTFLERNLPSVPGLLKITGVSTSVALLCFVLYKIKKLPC

[1] = biological target: T2, total cholinesterase (ChE) (Rattus norvegicus, UniProt P37136); experiment: Total cholinesterase inhibition in rat brain homogenates (Ellman); assay type: biochemical
T2 sequence (P37136 32-614): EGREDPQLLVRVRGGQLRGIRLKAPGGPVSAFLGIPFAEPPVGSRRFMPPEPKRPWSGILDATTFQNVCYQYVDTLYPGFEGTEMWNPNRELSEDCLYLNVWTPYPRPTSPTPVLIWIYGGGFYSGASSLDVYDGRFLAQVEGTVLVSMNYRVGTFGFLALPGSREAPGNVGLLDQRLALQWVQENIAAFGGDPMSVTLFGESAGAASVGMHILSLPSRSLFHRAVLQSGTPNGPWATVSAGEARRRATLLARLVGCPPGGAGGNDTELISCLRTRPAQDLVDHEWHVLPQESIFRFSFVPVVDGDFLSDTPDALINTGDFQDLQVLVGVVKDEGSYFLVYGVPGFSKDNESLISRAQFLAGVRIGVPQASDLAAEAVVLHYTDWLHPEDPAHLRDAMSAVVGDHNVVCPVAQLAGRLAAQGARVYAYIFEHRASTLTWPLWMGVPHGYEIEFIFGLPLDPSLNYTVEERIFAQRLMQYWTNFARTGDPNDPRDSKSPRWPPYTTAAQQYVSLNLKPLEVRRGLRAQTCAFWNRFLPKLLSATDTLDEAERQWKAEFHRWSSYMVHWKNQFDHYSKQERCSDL
Procedure: Cholinesterase activity was determined in rat brain homogenate following incubation with varying concentrations of the multifunctional pro-chelators of the invention (also referred to herein as “carbamates”).
Ellman's colorimetric method was adapted for determination of total cholinesterase (ChE) and butyrylcholinesterase (BuChE) activities in rat brain homogenates. Brain tissue from adult Wistar rats was homogenized at 2% w/v (or 10% w/v, for BuChE) in 0.1 M sodium phosphate buffer, pH 7.4, with added NaCl 58.5 g/l and Triton X-100 0.05% v/v. Aliquots of homogenate (20 μl) were incubated with the test compounds for designed time intervals in phosphate buffer pH 7.4, before addition of 5,5′-dithiobis(2-nitrobenzoic) acid and either 1 mM acetylthiocholine iodide or 10 mM butyrylthiocholine iodide (Sigma, St. Louis, Mo.). The reaction was run at 37° C. in a final volume of […] in 96-well microplates and was followed at 412 nm for 5 min with a plate reader. In every experiment, cholinesterase-independent (nonspecific) substrate hydrolysis was determined by including one experimental group treated with tacrine 30 μM. Appropriate tissue and reagent blanks were also included. Reaction velocities were determined in three or four replicates per condition; these were averaged and expressed as percent activity relative to control (solvent), after subtracting the rate of nonspecific hydrolysis.
The results are the mean SEM, n=3 in triplicates. ND—not determined.

AChE = AChE (Homo sapiens, UniProt P22303); experiment: Conversion of pro-chelator by AChE into active chelator (UV-vis and MS of extract); assay type: biochemical; conditions: extract from a solution of AChE titrated with metal salts
Procedure: When ZnCl2, or CuSO4 were titrated into the extract, two new bands at around 365 nm or 375 nm appeared, corresponding to the formation of […], respectively. […] This finding was reinforced by mass spectrometry analysis of the extract, which gave a value of m/z 227.22, corresponding to m/z of [M30+H]^+.
When FeCl3 or FeSO4 were titrated to an extract from a solution of AChE into which compound 23 was added, new bands at around 460 nm and 590 nm appeared exactly matching the absorption of HLA20−Fe in FIG. 2A. Titration of CuSO4 or ZnCl2 to the extract introduced new bands at around 370 nm or 360 nm, corresponding to the absorption of the complexes […], respectively.

[2] = IC50 MAO-A, rat brain homogenate in vitro, mean SEM, n=3 in triplicates

Chain of AChE (P22303 32-614): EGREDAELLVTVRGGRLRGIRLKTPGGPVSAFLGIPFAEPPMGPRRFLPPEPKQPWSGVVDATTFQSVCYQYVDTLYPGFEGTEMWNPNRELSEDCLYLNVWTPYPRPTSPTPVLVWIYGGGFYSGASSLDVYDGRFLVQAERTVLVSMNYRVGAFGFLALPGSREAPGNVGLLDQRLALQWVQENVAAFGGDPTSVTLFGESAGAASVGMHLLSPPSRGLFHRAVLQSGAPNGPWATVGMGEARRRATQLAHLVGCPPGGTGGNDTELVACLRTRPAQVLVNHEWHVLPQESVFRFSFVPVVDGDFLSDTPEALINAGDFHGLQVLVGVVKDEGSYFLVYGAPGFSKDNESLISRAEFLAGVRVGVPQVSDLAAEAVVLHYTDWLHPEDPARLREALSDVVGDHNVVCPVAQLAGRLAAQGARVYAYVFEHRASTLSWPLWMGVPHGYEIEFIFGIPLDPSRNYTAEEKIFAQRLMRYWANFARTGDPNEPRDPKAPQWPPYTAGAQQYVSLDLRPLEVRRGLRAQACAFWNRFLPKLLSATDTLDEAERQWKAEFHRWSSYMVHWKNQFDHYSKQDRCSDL

Row | Compound | IC50 (rat brain MAO-A; [2]) | conversion by AChE to active chelator (AChE) | further results
1 | C#CCN(C)Cc1ccc(OC(=O)N(C)CC)c2ncccc12 [Compound 3, 5-((methyl(propargyl)amino)methyl)quinolin-8-yl ethyl(methyl)carbamate] | < 100 nM | – | IC50 ([1]; rat brain homogenates, mean SEM, n=3 in triplicates): 9800 nM
2 | C#CCN(C)Cc1ccc(OC(=O)N2CCCC2)c2ncccc12 [Compound 5, 5-((methyl(propargyl)amino)methyl)quinolin-8-yl pyrrolidine-1-carboxylate] | 4.7 to 20 nM and 4.9 nM | – | –
3 | C#CCN(C)Cc1ccc(OC(=O)N2CCN(Cc3ccccc3)CC2)c2ncccc12 [Compound 13, 5-((methyl(propargyl)amino)methyl)quinolin-8-yl 4-benzyl piperazine-1-carboxylate] | 4.7 to 20 nM and 20 nM | converted by AChE back into M30 | –
4 | C#CCC1CCN(Cc2ccc(OC(=O)N(C)C)c3ncccc23)CC1 [Compound 23, 5-((4-(propargyl)piperidin-1-yl)methyl)quinolin-8-yl dimethylcarbamate] | – | converted compound 23 back into HLA20 | inhibitory effect on MAO-A (rat brain MAO-A; rat brain homogenate): minor to none inhibitory effects; inhibition at 10 µM (rat brain MAO-A; read-out: percent inhibition MAO-A): 13%
5 | C#CCN(C)Cc1ccc(O)c2ncccc12 [M30, reference compound] | – | – | IC50 (rat brain MAO-A): 37 ± 20 nM; IC50 [1]: 114000 nM
